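The compound was tested at five concentrations on cells cultured in 96-well plates, with a 48-hour exposure period. Definition used: TGI = concentration required for complete inhibition of growth.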
Legend:
Assay in all cases: NCI tumour cell line growth inhibition, 48 h
M14 melanoma = test system: M14 melanoma
SNB-75 CNS = test system: SNB-75 CNS
DMS 114 small cell lung = test system: DMS 114 small cell lung
NCI-H460 lung = test system: NCI-H460 lung
CCRF-CEM leukemia = test system: CCRF-CEM leukemia
SW-620 colon = test system: SW-620 colon
OVCAR-4 ovarian = test system: OVCAR-4 ovarian
SK-MEL-5 melanoma = test system: SK-MEL-5 melanoma
OVCAR-8 ovarian = test system: OVCAR-8 ovarian
DLD-1 colon = test system: DLD-1 colon
NCI-H522 lung = test system: NCI-H522 lung
786-0 renal = test system: 786-0 renal
SK-MEL-28 melanoma = test system: SK-MEL-28 melanoma
K-562 leukemia = test system: K-562 leukemia
HL-60(TB) leukemia = test system: HL-60(TB) leukemia
HOP-62 NSCLC = test system: HOP-62 NSCLC
UO-31 renal = test system: UO-31 renal
A549 NSCLC = test system: A549 NSCLC
RPMI-8226 leukemia = test system: RPMI-8226 leukemia
DMS 273 small cell lung = test system: DMS 273 small cell lung
ACHN renal = test system: ACHN renal
TK-10 renal = test system: TK-10 renal
UACC-62 melanoma = test system: UACC-62 melanoma
LXFL 529 NSCLC = test system: LXFL 529 NSCLC
NCI-H226 lung = test system: NCI-H226 lung
U251 CNS = test system: U251 CNS
SNB-19 CNS = test system: SNB-19 CNS
XF 498 CNS = test system: XF 498 CNS
SNB-78 CNS = test system: SNB-78 CNS
EKVX NSCLC = test system: EKVX NSCLC
KM20L2 colon = test system: KM20L2 colon
RXF 393 renal = test system: RXF 393 renal
SN12C renal = test system: SN12C renal
IGROV1 ovarian = test system: IGROV1 ovarian
CAKI-1 renal = test system: CAKI-1 renal
SF-268 CNS = test system: SF-268 CNS
HCT-15 colon = test system: HCT-15 colon
SK-OV-3 ovarian = test system: SK-OV-3 ovarian
SF-295 CNS = test system: SF-295 CNS
M19-MEL melanoma = test system: M19-MEL melanoma
MALME-3M melanoma = test system: MALME-3M melanoma
A498 renal = test system: A498 renal
LOX IMVI melanoma = test system: LOX IMVI melanoma
HT29 colon = test system: HT29 colon
KM12 colon = test system: KM12 colon
SR leukemia = test system: SR leukemia
HCT-116 colon = test system: HCT-116 colon
UACC-257 melanoma = test system: UACC-257 melanoma
OVCAR-5 ovarian = test system: OVCAR-5 ovarian
HOP-92 NSCLC = test system: HOP-92 NSCLC
HCC-2998 colon = test system: HCC-2998 colon
OVCAR-3 ovarian = test system: OVCAR-3 ovarian
SF-539 CNS = test system: SF-539 CNS
NCI-H23 lung = test system: NCI-H23 lung
COLO 205 colon = test system: COLO 205 colon
SK-MEL-2 melanoma = test system: SK-MEL-2 melanoma
MOLT-4 leukemia = test system: MOLT-4 leukemia

## CCOC(=O)C1N(S(=O)(=O)c2ccc(C)cc2)CCC12c1ccccc1NC2c1ccc(OC)c(OC)c1 (stereo unspecified)
M14 melanoma
  TGI: > 100 µM
SNB-75 CNS
  TGI: > 100 µM
DMS 114 small cell lung
  TGI: > 100 µM
NCI-H460 lung
  TGI: > 100 µM
CCRF-CEM leukemia
  TGI: > 100 µM
SW-620 colon
  TGI: > 100 µM
OVCAR-4 ovarian
  TGI: > 100 µM
SK-MEL-5 melanoma
  TGI: > 100 µM
OVCAR-8 ovarian
  TGI: > 100 µM
DLD-1 colon
  TGI: > 100 µM
NCI-H522 lung
  TGI: > 100 µM
786-0 renal
  TGI: > 100 µM
SK-MEL-28 melanoma
  TGI: > 100 µM
K-562 leukemia
  TGI: > 100 µM
HL-60(TB) leukemia
  TGI: > 100 µM
HOP-62 NSCLC
  TGI: > 100 µM
UO-31 renal
  TGI: > 100 µM
A549 NSCLC
  TGI: > 100 µM
RPMI-8226 leukemia
  TGI: > 100 µM
DMS 273 small cell lung
  TGI: > 100 µM
ACHN renal
  TGI: > 100 µM
TK-10 renal
  TGI: > 100 µM
UACC-62 melanoma
  TGI: > 100 µM
LXFL 529 NSCLC
  TGI: > 100 µM
NCI-H226 lung
  TGI: > 100 µM
U251 CNS
  TGI: > 100 µM
SNB-19 CNS
  TGI: > 100 µM
XF 498 CNS
  TGI: > 100 µM
SNB-78 CNS
  TGI: > 100 µM
EKVX NSCLC
  TGI: > 100 µM
KM20L2 colon
  TGI: > 100 µM
RXF 393 renal
  TGI: > 100 µM
SN12C renal
  TGI: > 100 µM
IGROV1 ovarian
  TGI: 34 µM
CAKI-1 renal
  TGI: > 100 µM
SF-268 CNS
  TGI: > 100 µM
HCT-15 colon
  TGI: > 100 µM
SK-OV-3 ovarian
  TGI: > 100 µM
SF-295 CNS
  TGI: > 100 µM
M19-MEL melanoma
  TGI: > 100 µM
MALME-3M melanoma
  TGI: > 100 µM
A498 renal
  TGI: > 100 µM
LOX IMVI melanoma
  TGI: > 100 µM
HT29 colon
  TGI: > 100 µM
KM12 colon
  TGI: > 100 µM
SR leukemia
  TGI: > 100 µM
HCT-116 colon
  TGI: > 100 µM
UACC-257 melanoma
  TGI: > 100 µM
OVCAR-5 ovarian
  TGI: > 100 µM
HOP-92 NSCLC
  TGI: 24.4 µM
HCC-2998 colon
  TGI: > 100 µM
OVCAR-3 ovarian
  TGI: > 100 µM
SF-539 CNS
  TGI: > 100 µM
NCI-H23 lung
  TGI: > 100 µM
COLO 205 colon
  TGI: > 100 µM

## N#CC(/C(=N/N=C(N)N)C(=O)Nc1ccccc1[N+](=O)[O-])c1nc(-c2ccc([N+](=O)[O-])cc2)cs1 (stereo unspecified)
M14 melanoma
  TGI: > 100 µM
SNB-75 CNS
  TGI: > 100 µM
DMS 114 small cell lung
  TGI: > 100 µM
SK-MEL-2 melanoma
  TGI: > 100 µM
NCI-H460 lung
  TGI: > 100 µM
CCRF-CEM leukemia
  TGI: > 100 µM
SW-620 colon
  TGI: > 100 µM
OVCAR-4 ovarian
  TGI: > 100 µM
SK-MEL-5 melanoma
  TGI: > 100 µM
OVCAR-8 ovarian
  TGI: > 100 µM
DLD-1 colon
  TGI: > 100 µM
NCI-H522 lung
  TGI: > 100 µM
786-0 renal
  TGI: > 100 µM
MOLT-4 leukemia
  TGI: > 100 µM
SK-MEL-28 melanoma
  TGI: > 100 µM
K-562 leukemia
  TGI: > 100 µM
HL-60(TB) leukemia
  TGI: > 100 µM
HOP-62 NSCLC
  TGI: > 100 µM
UO-31 renal
  TGI: > 100 µM
A549 NSCLC
  TGI: > 100 µM
RPMI-8226 leukemia
  TGI: > 100 µM
DMS 273 small cell lung
  TGI: > 100 µM
ACHN renal
  TGI: > 100 µM
TK-10 renal
  TGI: > 100 µM
UACC-62 melanoma
  TGI: > 100 µM
LXFL 529 NSCLC
  TGI: > 100 µM
NCI-H226 lung
  TGI: > 100 µM
U251 CNS
  TGI: > 100 µM
SNB-19 CNS
  TGI: > 100 µM
XF 498 CNS
  TGI: > 100 µM
SNB-78 CNS
  TGI: > 100 µM
EKVX NSCLC
  TGI: > 100 µM
KM20L2 colon
  TGI: > 100 µM
RXF 393 renal
  TGI: > 100 µM
SN12C renal
  TGI: > 100 µM
IGROV1 ovarian
  TGI: > 100 µM
CAKI-1 renal
  TGI: > 100 µM
SF-268 CNS
  TGI: > 100 µM
HCT-15 colon
  TGI: > 100 µM
SK-OV-3 ovarian
  TGI: > 100 µM
SF-295 CNS
  TGI: > 100 µM
M19-MEL melanoma
  TGI: > 100 µM
MALME-3M melanoma
  TGI: > 100 µM
A498 renal
  TGI: > 100 µM
LOX IMVI melanoma
  TGI: > 100 µM
HT29 colon
  TGI: > 100 µM
KM12 colon
  TGI: > 100 µM
SR leukemia
  TGI: > 100 µM
HCT-116 colon
  TGI: > 100 µM
UACC-257 melanoma
  TGI: > 100 µM
OVCAR-5 ovarian
  TGI: > 100 µM
HCC-2998 colon
  TGI: > 100 µM
OVCAR-3 ovarian
  TGI: > 100 µM
SF-539 CNS
  TGI: > 100 µM
NCI-H23 lung
  TGI: > 100 µM
COLO 205 colon
  TGI: > 100 µM

Reference: PubChem BioAssay (NCI)
